# What was measured:
# [1] = system: HL-60 cells; assay: Cell viability, Guava ViaCount kit, flow cytometry; assay type: cell-based, human; details: 22 μM, 72 h
# Procedure: Initially, the percentage of viable cells in apoptosis or necrosis was determined by the ViaCount assay at the Guava EasyCyte HT flow cytometer (Merck-Millipore, Hayward, CA, USA). The ViaCount kit (Merck-Millipore, Hayward, CA, USA) determines cell viability based on membrane permeability. The concentrations used in the cytometric tests were values corresponding to the IC50 and 2x IC50 of 72 h and the chosen cell line was HL-60 (promyelocytic leukemia).
# HL-60 cells (3 × 10^5) were plated in 24-well plates and treated with the compounds 3c (13 and 26 μM) and 4a (11 and 22 μM) for 72 h at 37 °C with 5% CO2. In all trials, doxorubicin was used as a positive control. After the incubation period, an aliquot of 500 μL of treated and untreated cells suspension was transferred to an Eppendorf tube and centrifuged to remove the supernatant and continue the protocol of the test. In the cell viability and annexin V assays, kits were used, ViaCount kit and guava nexin kit (Guava Technologies), respectively. The protocols performed in these tests followed the manufacturer’s instructions. For to analyze mitochondrial depolarization, rhodamine 123 fluorescent dye was used. In the assay for cell cycle analysis and DNA fragmentation propidium iodide was used. […] The data were analyzed in Guava-Soft™ software version 2.7. […]
# [2] = system: HL-60 cells; assay: Cell cycle assay (propidium iodide), flow cytometry; assay type: cell-based, human; details: 72 h
# Procedure: In order to improve the study of the mechanism of death induction by compounds 3c and 4a in HL-60 cells, a test was performed on the flow cytometer after staining with propidium iodide to evaluate the effect of the compounds on cell cycle progression (Figure 6).
# HL-60 cells (3 × 10^5) were plated in 24-well plates and treated with the compounds 3c (13 and 26 μM) and 4a (11 and 22 μM) for 72 h at 37 °C with 5% CO2. In all trials, doxorubicin was used as a positive control. After the incubation period, an aliquot of 500 μL of treated and untreated cells suspension was transferred to an Eppendorf tube and centrifuged to remove the supernatant and continue the protocol of the test. In the cell viability and annexin V assays, kits were used, ViaCount kit and guava nexin kit (Guava Technologies), respectively. The protocols performed in these tests followed the manufacturer’s instructions. For to analyze mitochondrial depolarization, rhodamine 123 fluorescent dye was used. In the assay for cell cycle analysis and DNA fragmentation propidium iodide was used. The experiments were performed on Guava EasyCyte HT (Merck-Millipore) flow cytometer, acquiring 5000 events. The data were analyzed in Guava-Soft™ software version 2.7. Three independent experiments were performed in triplicate.
# [3] = target: panel of ten different protein kinases; assay: Kinase inhibition, panel of ten protein kinases; assay type: biochemical; details: 3c: except towards HASPIN, CK1 and GSK3; inactive = IC50 > 10 μM; read-out: IC50 across the kinase panel
# Description: A panel of ten native or recombinant protein kinases was used during this study: […]
SMILES,cells in early apoptosis (ViaCount) [1] [%],cells in G1 phase ([2]; 11 μM) [%],cells in G1 phase ([2]; 22 μM) [%],cells in G1 phase ([2]; 13 μM) [%],cells in G1 phase ([2]; 26 μM) [%],IC50 [3] [µM],melting point [°C]
"CCCCN(N=Cc1ccc([N+](=O)[O-])o1)C(N)=O [Compound 4a, 5-Nitro-2-(N^2-n-butyl)furfuraldehyde Semicarbazone]",65.3,62.7,81.9,–,–,–,–
"NC(=O)N/N=C/c1c(O)ccc2ccccc12 [Compound 3c, 2-Hydroxynaphthaldehyde Semicarbazone]",–,–,–,63.3,66.2,0.073 to 5.1,–
"Cc1ccc(C=NNC(N)=O)cc1 [Compound 3g, 4-Methylbenzaldehyde Semicarbazone]",–,–,–,–,–,> 10,215 to 217
